Results on 56 molecules are retold here after ChEMBL document CHEMBL3860060, “Discovery and Optimization of 1-Phenoxy-2-aminoindanes as Potent, Selective, and Orally Bioavailable Inhibitors of the Na+/H+ Exchanger Type 3 (NHE3)” (J Med Chem, 2016).

For series [1], the target named is T1, Sodium/hydrogen exchanger 3 (Homo sapiens, UniProt P48764).
T1 sequence (P48764 whole entry): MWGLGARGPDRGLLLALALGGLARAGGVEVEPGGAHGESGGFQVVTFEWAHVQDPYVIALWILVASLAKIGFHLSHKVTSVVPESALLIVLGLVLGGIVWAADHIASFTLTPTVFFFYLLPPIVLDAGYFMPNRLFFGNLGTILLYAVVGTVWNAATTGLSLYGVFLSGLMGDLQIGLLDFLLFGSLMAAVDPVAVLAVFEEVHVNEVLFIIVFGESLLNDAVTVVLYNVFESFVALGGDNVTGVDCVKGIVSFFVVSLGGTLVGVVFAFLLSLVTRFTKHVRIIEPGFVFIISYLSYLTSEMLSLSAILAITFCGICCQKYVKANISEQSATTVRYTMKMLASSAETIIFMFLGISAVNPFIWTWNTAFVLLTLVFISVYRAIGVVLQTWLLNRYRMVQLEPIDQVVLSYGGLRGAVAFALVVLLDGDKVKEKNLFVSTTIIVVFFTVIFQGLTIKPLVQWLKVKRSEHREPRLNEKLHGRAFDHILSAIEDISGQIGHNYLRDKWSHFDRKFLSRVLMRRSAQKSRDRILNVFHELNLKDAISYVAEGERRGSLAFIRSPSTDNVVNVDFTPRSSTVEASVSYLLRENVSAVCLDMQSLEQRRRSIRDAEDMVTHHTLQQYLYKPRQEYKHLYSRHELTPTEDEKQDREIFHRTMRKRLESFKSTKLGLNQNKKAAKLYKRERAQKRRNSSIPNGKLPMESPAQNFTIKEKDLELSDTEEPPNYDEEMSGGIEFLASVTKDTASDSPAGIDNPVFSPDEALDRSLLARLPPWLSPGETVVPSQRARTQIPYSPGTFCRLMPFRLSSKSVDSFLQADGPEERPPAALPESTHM
The series can be described thus: Inhibition of human NHE3 expressed in LAP1 cell assessed as intracellular pH recovery measured for 2 mins by CECF-AM dye based FLIPR assay.

For another series, the target named is Cytochrome P450 2D6 (Homo sapiens, UniProt P10635).
Sequence of Cytochrome P450 2D6 (P10635 whole entry): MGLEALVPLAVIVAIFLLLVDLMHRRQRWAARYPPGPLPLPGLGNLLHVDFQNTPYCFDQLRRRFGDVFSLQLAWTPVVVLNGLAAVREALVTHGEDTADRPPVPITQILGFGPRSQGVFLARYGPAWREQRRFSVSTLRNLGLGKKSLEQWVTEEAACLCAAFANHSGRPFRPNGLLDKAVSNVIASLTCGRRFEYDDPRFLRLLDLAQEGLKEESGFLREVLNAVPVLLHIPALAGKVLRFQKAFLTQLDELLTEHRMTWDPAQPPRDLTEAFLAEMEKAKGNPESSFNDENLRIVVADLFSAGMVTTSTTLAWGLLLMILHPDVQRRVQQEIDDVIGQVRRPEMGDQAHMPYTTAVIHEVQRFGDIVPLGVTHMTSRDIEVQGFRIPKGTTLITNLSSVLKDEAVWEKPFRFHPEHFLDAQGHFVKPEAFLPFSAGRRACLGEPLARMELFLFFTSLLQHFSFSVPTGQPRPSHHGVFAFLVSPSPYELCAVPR
Series [2] is described as follows: Permeability in human Caco2/TC7 cells assessed as total flux at 20 uM incubated for 2 hrs by LC-MS/MS method. The settings on record: Caco-2, read-out: permeability. The series is classed as ADME, cell-based. In general terms: Caco-2 cells form a polarised layer with tight junctions and transporters.

Description for Cytochrome P450 2D6: Inhibition of CYP2D6 in pooled human hepatic microsomes using dextromethorphan substrate in presence of NADPH

Regarding `CS(=O)(=O)c1ccc(O[C@H]2c3cc(Cl)cc(Cl)c3C[C@@H]2N2CCC3(CCNC3)C2)cc1` (some centres not stated), the IC50 in series [1] worked out at 11 nM.
Turning to `CC(=O)Nc1cccc(O[C@H]2c3ccccc3C[C@@H]2N2CCC[C@@H](N)C2)c1`, the values for the 50% inhibitory concentration (IC50) (against Cytochrome P450 2D6; in series [1]) were 5100 nM and 440 nM, respectively. Also, the Papp at 2 h, 20 µM in series [2] is 0.03 ×10⁻⁶ cm/s.
In the case of `CS(=O)(=O)c1ccc(O[C@H]2c3cc(Cl)cc(Cl)c3C[C@@H]2N2CC[C@H](O)C2)cc1`, in series [1], the IC50 came to 384 nM.
For `CS(=O)(=O)c1ccc(O[C@H]2c3ccccc3C[C@@H]2N2CCCC2)c(Cl)c1Cl`, in series [2], the Papp at 2 h, 20 µM was determined as 19.2 ×10⁻⁶ cm/s. For the same molecule, in series [1], the IC50 was 540 nM.
As for `CS(=O)(=O)c1ccc(O[C@H]2c3cc(F)cc(Cl)c3C[C@@H]2N2CCNCC2)cc1` (racemic), in series [1], the IC50 came out at 123 nM.
Turning to `CS(=O)(=O)c1ccc(OC2c3cc(Cl)cc(Cl)c3CC2N2C[C@H]3CNC[C@H]3C2)cc1` (single isomer, unassigned), the IC50 on Cytochrome P450 2D6 amounted to 900 nM; in series [1], 28 nM. The Papp at 2 h, 20 µM in series [2] stood at 0.07 ×10⁻⁶ cm/s.
The matching figures for `CS(=O)(=O)c1ccc(O[C@H]2c3cc(Cl)cc(Cl)c3C[C@@H]2N2CC[C@@H](O)C2)cc1`: 2400 nM, 588 nM and 28.6 ×10⁻⁶ cm/s.
For `O=C1CCC(=O)N1c1cccc(O[C@H]2c3ccccc3C[C@@H]2N2CCCC2)c1`, the IC50 in series [1] was determined as 2960 nM.
With `CN(C)CCCN(C)[C@H]1Cc2c(Cl)cc(Cl)cc2[C@@H]1Oc1ccc(S(C)(=O)=O)cc1`, in series [1], the 50% inhibitory concentration (IC50) was found to be 48 nM.
The same measure, in the same setting: the figure for `CS(=O)(=O)c1ccc(O[C@H]2c3cc(F)ccc3C[C@@H]2N2CCNCC2)cc1` (racemic) is 3490 nM; for `O=C1CCCN1c1cccc(O[C@H]2c3ccccc3C[C@@H]2N2CCCC2)c1` it is 3520 nM; for `CC(=O)Nc1ccc(O[C@H]2c3ccccc3C[C@@H]2N2CCCC2)cc1` it is 2770 nM.
The same measure, in the same setting: next, `O=C1OCCN1c1cccc(O[C@H]2c3ccccc3C[C@@H]2N2CCCC2)c1`: 955 nM.
Take `CN(C)CCN(C)[C@H]1Cc2c(Cl)cc(Cl)cc2[C@@H]1Oc1ccc(S(C)(=O)=O)cc1`: the IC50 on Cytochrome P450 2D6 is under 300 nM; in series [1], 20 nM. Further, in series [2], the Papp at 2 h, 20 µM amounted to 8 ×10⁻⁶ cm/s.
For the molecule `CS(=O)(=O)c1ccc(O[C@H]2c3cc(Cl)ccc3C[C@@H]2N2CCNCC2)cc1` (racemic), the IC50 in series [1] is 540 nM.
Still for that read-out and setting: next, `Cc1nncn1-c1ccc(O[C@H]2c3ccccc3C[C@@H]2N2CCCC2)cc1`: 640 nM.
Turning to `Cc1nnc(C)n1-c1ccc(O[C@H]2c3ccccc3C[C@@H]2N2CCCC2)c(Cl)c1`, the half-maximal inhibitory concentration (IC50) is 730 nM against Cytochrome P450 2D6 and 78 nM in series [1]. Further, the Papp at 2 h, 20 µM in series [2] is 6.7 ×10⁻⁶ cm/s.
The corresponding values for `O=c1[nH]ccn1-c1cccc(O[C@H]2c3ccccc3C[C@@H]2N2CCCC2)c1` are 3800 nM, 281 nM and 9.8 ×10⁻⁶ cm/s.
The corresponding values for `Cc1nnc(C)n1-c1ccc(O[C@H]2c3cc(Cl)ccc3C[C@@H]2N2CC[C@@H](O)C2)c(Cl)c1` are 9500 nM, 90 nM and 0.5 ×10⁻⁶ cm/s.
As to `Cc1nnc(C)n1-c1ccc(O[C@H]2c3ccccc3C[C@@H]2N2CCCC2)cc1`, the half-maximal inhibitory concentration (IC50) in series [1] came to 345 nM.
With `CS(=O)(=O)c1ccc(O[C@H]2c3c(ccc(Cl)c3Cl)C[C@@H]2N2CCCNCC2)cc1`, in series [1], the IC50 turned out to be 43 nM.
Take `N[C@@H]1CCCN([C@H]2Cc3ccccc3[C@@H]2Oc2ccc(S(N)(=O)=O)c(Cl)c2Cl)C1`: the IC50 against Cytochrome P450 2D6 is under 300 nM; in series [1], 650 nM. The Papp at 2 h, 20 µM in series [2] was 0.08 ×10⁻⁶ cm/s.
The matching figures for `Cn1ccn(-c2cccc(O[C@H]3c4ccccc4C[C@@H]3N3CCCC3)c2)c1=O`: under 300 nM, 197 nM and 9.8 ×10⁻⁶ cm/s.
In the case of `CS(=O)(=O)c1ccc(O[C@H]2c3cc(Cl)cc(Cl)c3C[C@@H]2N2CCC[C@@H](N)C2)cc1`, the IC50 in series [1] is 4 nM.
Regarding `CS(=O)(=O)c1ccc(O[C@H]2c3cc(Cl)cc(Cl)c3C[C@@H]2N2CCNCC2)cc1`, the IC50 on Cytochrome P450 2D6 was under 300 nM; in series [1] it was 22 nM. Also, in series [2], the Papp at 2 h, 20 µM came out at 3 ×10⁻⁶ cm/s.
In the case of `CS(=O)(=O)c1ccc(O[C@H]2c3cc(Cl)cc(Cl)c3C[C@@H]2N2CCC[C@@H](NCCO)C2)cc1`, in series [1], the half-maximal inhibitory concentration (IC50) stood at 4 nM.
Turning to `CS(=O)(=O)c1ccc(O[C@H]2c3cc(Cl)cc(Cl)c3C[C@@H]2N2CCCNCC2)cc1`, the 50% inhibitory concentration (IC50) on Cytochrome P450 2D6 is under 300 nM; in series [1], 6 nM. In addition, the Papp at 2 h, 20 µM in series [2] was determined as 1.6 ×10⁻⁶ cm/s.
As to `O=C1OCc2cc(O[C@H]3c4ccccc4C[C@@H]3N3CCCC3)ccc21`, the concentration for half-maximal inhibition (IC50) in series [1] was determined as 2440 nM.
On the same count and under the same terms, the figure for `O=S1(=O)CCCN1c1cccc(O[C@H]2c3ccccc3C[C@@H]2N2CCCC2)c1` is 1530 nM; for `NS(=O)(=O)c1ccc(O[C@H]2c3ccccc3C[C@@H]2N2CCCC2)cc1` it is 500 nM; for `Cc1nnc(C)n1-c1ccc(O[C@H]2c3ccccc3C[C@@H]2N2CCCC2)c(C(F)(F)F)c1` it is 118 nM.
As for `CCN(CC)C(=O)c1ccc(O[C@H]2c3ccccc3C[C@@H]2N2CCCC2)cc1`, the half-inhibitory concentration (IC50) in series [1] was 2070 nM.
Still for that read-out and setting: the figure for `CS(=O)(=O)c1ccc(O[C@H]2c3cc(Cl)cc(Cl)c3C[C@@H]2N2CC[C@@H](F)C2)cc1` is 166 nM.
For the molecule `COCCN1CCCN([C@H]2Cc3c(Cl)cc(Cl)cc3[C@@H]2Oc2ccc(S(C)(=O)=O)cc2)CC1`, the IC50 at Cytochrome P450 2D6 is under 300 nM; in series [1], 64 nM. The Papp at 2 h, 20 µM in series [2] was determined as 11 ×10⁻⁶ cm/s.
The matching figures for `CS(=O)(=O)c1ccc(O[C@H]2c3cc(Cl)cc(Cl)c3C[C@@H]2N2CCC[C@@H](NCCF)C2)cc1`: under 300 nM, 56 nM and 10.5 ×10⁻⁶ cm/s.
The corresponding values for `N[C@@H]1CCCN([C@H]2Cc3c(Cl)cc(Cl)cc3[C@@H]2Oc2ccc(-n3cncn3)cc2)C1` are under 300 nM, 30 nM and 2.4 ×10⁻⁶ cm/s.
With `CN1C[C@@H]2CN([C@H]3Cc4c(Cl)cc(Cl)cc4[C@@H]3Oc3ccc(S(C)(=O)=O)cc3)C[C@@H]2C1`, the half-maximal inhibitory concentration (IC50) against Cytochrome P450 2D6 is under 300 nM; in series [1], 241 nM. For the same molecule, the Papp at 2 h, 20 µM in series [2] worked out at 6 ×10⁻⁶ cm/s.
The matching figures for `N[C@@H]1CCCN([C@H]2Cc3c(Cl)cc(Cl)cc3[C@@H]2Oc2ccc(-n3ccnc3)cc2)C1`: under 300 nM, 23 nM and 1.1 ×10⁻⁶ cm/s.
For `CS(=O)(=O)c1ccc(O[C@H]2c3cc(Cl)cc(Cl)c3C[C@@H]2N2CCCNCC2)c(Cl)c1`, in series [1], the IC50 came to 2 nM.
Still for that read-out and setting: next, `c1ccc2c(c1)C[C@H](N1CCCC1)[C@H]2Oc1ccc(-c2nccs2)cc1`: 1710 nM.
As for `CS(=O)(=O)c1ccc(O[C@H]2c3cc(Cl)cc(F)c3C[C@@H]2N2CCCC2)cc1` (racemic), the 50% inhibitory concentration (IC50) is under 300 nM at Cytochrome P450 2D6 and 737 nM in series [1]. In addition, the Papp at 2 h, 20 µM in series [2] is 28.3 ×10⁻⁶ cm/s.
For the molecule `CN1CCN([C@H]2Cc3c(Cl)cc(Cl)cc3[C@@H]2Oc2ccc(S(C)(=O)=O)cc2)CC1`, the IC50 in series [1] stood at 4040 nM.
Consider `c1ccc2c(c1)C[C@H](N1CCCC1)[C@H]2Oc1cccc2cccnc12`, for which, in series [1], the half-maximal inhibitory concentration (IC50) worked out at 9520 nM.
The same measure, in the same setting: the figure for `Cc1c(O[C@H]2c3ccccc3C[C@@H]2N2CCCC2)ccc(-n2c(C)nnc2C)c1C` is 170 nM.
For `CS(=O)(=O)c1ccc(O[C@H]2c3cc(Cl)cc(Cl)c3C[C@@H]2N2CCCN(CCO)CC2)cc1`, the concentration for half-maximal inhibition (IC50) in series [1] came out at 30 nM.
As to `CS(=O)(=O)c1ccc(O[C@H]2c3ccccc3C[C@@H]2N2CCNCC2)cc1`, the half-maximal inhibitory concentration (IC50) in series [1] stood at 6680 nM.
With `CS(=O)(=O)c1ccc(O[C@H]2c3cc(Cl)cc(Cl)c3C[C@@H]2N2CC(O)C2)cc1`, in series [1], the IC50 came to 1640 nM.
On the same count and under the same terms, the figure for `CS(=O)(=O)c1ccc(O[C@H]2c3cc(Cl)cc(F)c3C[C@@H]2N2CCNCC2)cc1` (racemic) is 168 nM; for `Cc1noc(C)c1-c1ccc(O[C@H]2c3ccccc3C[C@@H]2N2CCCC2)cc1` it is 411 nM; for `CS(=O)(=O)c1ccc(O[C@H]2c3c(Cl)cc(Cl)cc3C[C@@H]2N2CCNCC2)cc1` it is 135 nM.
Same read-out and setting: the figure for `Cc1nnc(C2CC2)n1-c1ccc(O[C@H]2c3ccccc3C[C@@H]2N2CCCC2)cc1` is 272 nM.
As to `C[C@@H]1CN([C@H]2Cc3c(Cl)cc(Cl)cc3[C@@H]2Oc2ccc(S(C)(=O)=O)cc2)CCN1`, in series [2], the Papp at 2 h, 20 µM amounted to 5.1 ×10⁻⁶ cm/s. The IC50 in series [1] amounted to 20 nM.
Regarding `CS(=O)(=O)c1ccc(O[C@H]2c3cc(Cl)c(Cl)cc3C[C@@H]2N2CCCNCC2)cc1` (racemic), the half-inhibitory concentration (IC50) in series [1] was 6060 nM.
On to `N#Cc1ccc(O[C@H]2c3ccccc3C[C@@H]2N2CCCC2)cc1`, for which the concentration for half-maximal inhibition (IC50) in series [1] is 4500 nM.
On the same count and under the same terms, the figure for `CC(=O)Nc1cc(O[C@H]2c3ccccc3C[C@@H]2N2CCCC2)ccn1` is 4530 nM.
Still for that read-out and setting: the figure for `CS(=O)(=O)c1ccc(O[C@H]2c3cc(Cl)cc(Cl)c3C[C@@H]2N2CC[C@H](F)C2)cc1` is 883 nM.

The term IC50 denotes the point on the concentration scale where inhibition reaches its midpoint.
